Where two headings read alike, the source gives them in different places.
Key:
[1] = cited from earlier work
[2] = Maximum solubility at room temperature (saturated or concentrated solution, UV-Vis at 506 nm; bulk electrolysis for K2FeDTPA); assay type: physicochemical
Protocol: A saturated solution of KCrPDTA was prepared by dissolving KCrPDTA crystals in minimal DI water at room temperature such that crystals remain undissolved. The solution was agitated for 1 day. […] For the Na^+ cation with CrEDTA, the solubility was determined from a concentrated impure solution containing 3:1 NaCl. […] For the K2 with Fe-DTPA, the solubility was determined from a concentrated impure solution containing 3:1 KCl.

[3] = Cyclic voltammetry and kinetic analysis on glassy carbon electrode; assay type: physicochemical; conditions: for Diffusion Coefficient (Do) / E^0 / Heterogenous Reduction Rate Constant (k^0): glassy carbon electrode
Protocol: Cyclic voltammetry was conducted using a Gamry Interface 1000 potentiostat, an Ag/AgCl aqueous reference electrode (3 M NaCl filling solution), a Pt wire counter electrode, and a 3-mm-diameter glassy carbon electrode. Half-cell experiments were conducted on a solution containing 5 mM K[Cr(PDTA)], 5 mM K4Fe(CN)6, and 0.125 M K2B4O7 at pH 9.
For an irreversible reaction, the peak current, ip, is given by equation (1).
[formula] where ip is in amperes, A is the electrode area (cm^2), CO° is the bulk concentration of oxidant (moles cm^−3), v is the potential sweep rate (V s^−1), DO is the diffusion coefficient of the oxidant, α is the charge transfer coefficient, and na is the number of […] involved in the rate-determining step. This equation reduces, at 25° C. to equation (2). ip=2.99*10^5n(αna)^1/2ACO^0DO^1/2v^1/2 (2) ip vs. v^1/2 was plotted, giving a straight line, with the slope being proportional to DO. Assuming an αna value of ½ allowed for the solving of DO. For a totally irreversible peak, the peak potential, Ep, is a function of scan rate, the difference between Ep and the formal potential, E^0′, being related to the standard heterogeneous rate constant, k°. The peak current can be expressed as show in equation (3).
[formula] Ln(ip) vs. (Ep−E°′), at different scan rates was plotting, with the intercept being proportional to and allowing solving for k°. E°′ was found in literature to be −1.31 V vs Ag/AgCl. The bulk concentration was 0.005 M, and na was 1 as there is only 1 electron being transferred. The area of the electrode is 0.0707 cm^2 from a 3 mm diameter glassy carbon electrode. Scan rates were done at 25, 50, 100, 200, and 500 mV s^−1. The slope of ip vs. v^1/2 was 0.0747, and the intercept of ln(ip) vs. (Ep−E°′) was −13.527.
Half-cell measurements were made using cyclic voltammetry (CV), which was conducted using a Gamry Interface 1000 potentiostat, an Ag/AgCl aqueous reference electrode (3 M NaCl filling solution), a Pt wire counter electrode, and a 3-mm-diameter glassy carbon working electrode, unless otherwise noted. Solutions were first sparged with an inert gas, for example N2, helium, neon, or argon, or combinations thereof, for at least 15 minutes and then kept under a blanket of an inert gas, such as N2, helium, neon, or argon, or combinations thereof, while tests were performed. All testing was performed at ambient temperatures. For carbon paper cyclic voltammetry experiments, the same setup was used as with the glassy carbon electrode, but the working electrode was a piece of carbon paper. For all chromium complexes and Fe(CN)6 solution 5 mM solutions were utilized for all CV experiments except those utilizing carbon paper electrodes which utilized 50 mM solutions. Other metal chelate complexes have concentrations that are specified in the figure captions.
Cyclic voltammetry (CV) was performed to compare the electrochemical behavior of FeDTPA and CrPDTA with their respective unchelated metal ions. […] Compared to their non-chelated counterparts, a greater electrochemical reversibility is observed in the chelated over the non-chelated metals (FIG. 32).

[4] = cited from earlier work; for reduction potential E^0: literature or previously reported values
[5] = cited from earlier work; remark: listed apart in the source
[6] = Stability of iron-chelate complexes at pH 9

| Molecule | E^0 [3] [V vs Ag/AgCl] | Heterogenous Reduction Rate Constant (k^0) [3] [×10⁻⁶ cm/s] | Binding Constant (Fe^+2) [5] | Binding Constant (Fe^+3) [5] | Stability at pH 9 [6] | other results |
| --- | --- | --- | --- | --- | --- | --- |
| Mn EDTA |  |  |  |  |  | RFB Electrolyte solubility ([1]; pH 3): 400 mM; RFB Electrolyte solubility ([1]; pH 4.5): 400 mM; RFB Electrolyte solubility ([1]; pH 6): 400 mM; RFB Electrolyte solubility ([1]; pH 6.6): 400 mM; RFB Electrolyte solubility ([1]; pH 8.0): 400 mM |
| O=C([O-])CN(CCN(CC(=O)[O-])CC(=O)[O-])CCN(CC(=O)[O-])CC(=O)[O-].[Fe+3].[K+].[K+] [FeDTPA K2] | −0.15 | 15.5 |  |  |  | maximum solubility / highest concentration cycled ([2]; pH 9, 20° C., limited by viscosity): 1350 mM; Max Solubility at RT ([2]; room temperature): 1350 mM; Diffusion Coefficient (Do) [3]: 2.41 10^−6 cm^2 s^−1 |
| O=C(O)CN(CCN(CC(=O)O)CC(=O)O)CC(=O)O.[Cr] [CrEDTA] |  |  |  |  |  | Cr^3+/2+ reduction potential ([4]; near neutral pH): −0.99 V vs. SHE |
| [Cl][Cr]([Cl])[Cl] [CrCl3] | −0.64 | 10 |  |  |  |  |
| O=C(O)CN(CCN(CC(=O)O)CC(=O)O)CCN(CC(=O)O)CC(=O)O [DTPA, diethylenetriaminepentaacetic acid] |  |  | 16.55 | 28.60 |  |  |
| [Cl][Fe]([Cl])[Cl] [FeCl3] | 0.55 | 3.4 |  |  |  | Diffusion Coefficient (Do) [3]: 7.55 10^−6 cm^2 s^−1; heterogeneous reduction rate constant k^0 ([3]; glassy carbon, 3 M HCl): 3.4e-06 cm/s; reduction potential E^0 [4]: 0.55 V vs. Ag/AgCl |
| O=C([O-])CN(CCN(CC(=O)[O-])CC(=O)[O-])CC(=O)[O-].[Fe+3].[Na+] [FeEDTA] |  |  | 14.33 | 25.10 | Dimerizes |  |
| O=C([O-])CN(CCO)CCN(CC(=O)[O-])CC(=O)[O-].[Fe+3] [FeHEDTA] |  |  | 12.2 | 19.7 | Dimerizes |  |
| [Fe+2].c1ccc(-c2ccccn2)nc1.c1ccc(-c2ccccn2)nc1.c1ccc(-c2ccccn2)nc1 [Fe(bpy)3] |  |  | 4.2 | 16.29 | Insoluble | reduction potential E^0 [4]: +0.903 V vs. Ag/AgCl |

Source: patent publication US12155103B2, “Electrochemical storage devices comprising chelated metals” (The Regents of the University of Colorado, a body corporate, priority 2019, dated 2024)
